These results are taken from the Deep4Chem optical property database.

The data set in a line: photoluminescence quantum yield (fraction); solvent given as SMILES.

As to `Cc1ccccc1-c1c2ccc(=[N+]3CCN(C(=O)OC(C)(C)C)CC3)cc-2oc2cc(N3CCN(C(=O)OC(C)(C)C)CC3)ccc12`, the photoluminescence quantum yield by setting is: (in CCO) 0.19; (in ClCCl) 0.47.
Regarding `CCOC(=O)c1ccc2c(c1)n(C)c1c3ccc(C(=O)OCC)cc3n(C)c21`, the photoluminescence quantum yield (in CCCO) was 0.53.
As to `COc1cc2c(cc1-c1ccsc1)Cc1c3c(c4c(c1-2)-c1cc(OC)c(-c2ccsc2)cc1C4)C(=O)N(CCC(C)C)C3=O`, the photoluminescence quantum yield (in C1CCOC1) is 0.55.
Where the note is “in ClCCl”, `C(=C\c1nc(/C=C/c2ccc(N(c3ccccc3)c3ccccc3)cc2)cc(/C=C/c2ccc(N(c3ccccc3)c3ccccc3)cc2)n1)/c1ccccc1` returned a photoluminescence quantum yield of 0.78.
As to `CC1(C)c2cccc(-c3nc(-c4ccccc4)nc(-c4ccccc4)n3)c2Oc2c(N3c4ccccc4Sc4ccccc43)cccc21`, the photoluminescence quantum yield (in Cc1ccccc1) was 0.077.
In turn, `c1cc2ccc3ccc4cc3c2cc1c1ccc2c(c1)c1cc(ccc1[C@]13OCCO[C@]21OCCO3)c1ccc2c(c1)c1cc4ccc1[C@]13OCCO[C@]21OCCO3` had a photoluminescence quantum yield (in Cc1ccccc1) of 0.63.
The compound `COc1c2ccccc2c(OC)c2c1c1ccc(F)cc1n2C` had a photoluminescence quantum yield (in C1CCCCC1) of 0.36, a photoluminescence quantum yield (in CC#N) of 0.27, a photoluminescence quantum yield (in CO) of 0.34 and a photoluminescence quantum yield (in ClCCl) of 0.45.
The compound `COc1cccc2cc(-c3ccc([N+](=O)[O-])cc3)c(=N)oc12` yielded a photoluminescence quantum yield (in C1CCOC1) of 0.004, a photoluminescence quantum yield (in CC#N) of 0.0016, a photoluminescence quantum yield (in CS(C)=O) of 0.0021 and a photoluminescence quantum yield (in ClC(Cl)Cl) of 0.023.
`COC(=O)c1nc2c(N(C)C)nc(N(C)C)nc2n1Cc1ccccc1`: the photoluminescence quantum yield by setting is: (in C1COCCO1) 0.95; (in CC#N) 0.86; (in CO) 0.66; (in ClCCl) 0.9.
Where the note is “in CC#N”, `C=CC(=O)Oc1ccc2cc(C=C)c(=O)oc2c1` showed a photoluminescence quantum yield of 0.19.
Consider `N#Cc1nn(-c2ccccc2Cl)nc1N1CCCC1`, for which, for the setting “in CC#N”, the photoluminescence quantum yield worked out at 0.607.
`COc1ccc(C2=C(c3ccc(OC)cc3)c3cccc4c5c(cc(c34)O2)=NC2C=C(Br)C(Br)=CC2N=5)cc1` (stereo not drawn): under “in ClCCl”, the photoluminescence quantum yield was 0.28.
`CC(C)Nc1cc2c(cc1F)c(=O)c1cc(F)c(NC(C)C)cc1n2C` had a photoluminescence quantum yield (in CCO) of 0.31.
Turning to `COC(=O)c1ccc(/C=C/C(F)(F)F)c(N)c1`, the photoluminescence quantum yield (in C1CCOC1) is 0.74.
`Cc1cn2cc(-c3ccccc3)[n-][n+]2c1`: under “in ClCCl”, the photoluminescence quantum yield was determined as 0.074.
Take `CCCCCCCc1cc2c(o1)=CC1=C3c4cc5oc(CCCCCCC)cc5n4[B-](F)(F)[n+]4nnn(c43)[B-](F)(F)[N+]=21`: the photoluminescence quantum yield amounted to 0.34 (in C1CCOC1) and 0.39 (in ClCCl).
For the compound `CC(C)[Si](C#Cc1c2cc3ccccc3cc2c(C#Cc2ccc(Br)cc2)c2cc3ccccc3cc12)(C(C)C)C(C)C`, the photoluminescence quantum yield (in ClCCl) is 0.12.
The compound `c1ccc(-c2cc3cc4ccccc4cc3p2-c2ccccc2)cc1` (stereo not drawn) had a photoluminescence quantum yield (in ClCCl) of 0.035.
In the case of `COc1ccc2[nH]cc(/C=C/C3=[NH+]c4cccc5cccc3c45)c2c1`, for the setting “in CO”, the photoluminescence quantum yield was determined as 0.0486.
Take `COc1cccc2c1oc(=O)c1c(=O)oc3cc(O)ccc3c12`: under “in ClCCl”, the photoluminescence quantum yield turned out to be 0.004.
For `CCOC(=O)c1ccc(C2=CC3=c4cc(-c5ccc(C(=O)OCC)cc5)c5nc(C(F)(F)C(F)(F)C(F)(F)F)nc6c(-c7ccc(C(=O)OCC)cc7)cc(c4c65)C4=CC(c5ccc(C(=O)OCC)cc5)=C5N=C(C(F)(F)C(F)(F)C(F)(F)F)N=C2C5C43)cc1` (stereo not drawn), the photoluminescence quantum yield (in C1CCOC1) was 0.79.
Take `CCn1c2ccccc2c2cc(/C=C/c3cc(/C=C/c4ccc5c(c4)c4ccccc4n5CC)ncn3)ccc21`: the photoluminescence quantum yield is 0.25 (in C1CCOC1); 0.25 (in CCOC(C)=O); 0.42 (in CN(C)C=O); 0.19 (in Cc1ccccc1); 0.29 (in ClCCl).
For `CCCCC(CC)Cn1c2cc(C#N)ccc2c2cc(-c3ccc(N(c4ccccc4)c4ccccc4)cc3)c(C#N)cc21` (stereo not drawn), the photoluminescence quantum yield (in ClCCl) is 0.31.
For `Cc1ccc(C2=C3C=CC(C#Cc4ccccc4)=[N+]3[B-](F)(F)n3c(C#Cc4ccccc4)ccc32)cc1`, the photoluminescence quantum yield stood at 1 (in C1CCCCC1); 0.99 (in C1CCOC1); 1 (in C1COCCO1); 1 (in CCOC(C)=O); 1 (in CO); 1 (in Cc1ccccc1). In addition, the photoluminescence quantum yield amounted to 1 (in ClC(Cl)Cl) and 1 (in ClCCl).
Consider `Cc1ccc(-c2c3nc(c(-c4ccc(C)cc4)c4ccc([nH]4)c(-c4ccc(OC(=O)C(C)c5ccc(Oc6ccccc6)cc5)cc4)c4nc(c(-c5ccc(C)cc5)c5ccc2[nH]5)C=C4)C=C3)cc1` (stereo not drawn), for which the photoluminescence quantum yield (in ClCCl) stood at 0.128.
The compound `CC[N+](CC)=c1ccc2c(C(F)(F)F)c3oc4cc(N)ccc4c3oc-2c1` displayed a photoluminescence quantum yield (in CCO) of 0.064, a photoluminescence quantum yield (in ClCCl) of 0.157 and a photoluminescence quantum yield (in O) of 0.014.
As to `CC/[NH+]=c1\cc2oc3cc(NCCC(=O)NCC(=O)OC)c4ccccc4c3nc-2cc1C`, the photoluminescence quantum yield by setting is: (in CCO) 0.37; (in O) 0.45.
`COc1cc(OC)cc(C2=C3C(C)=C(I)C(C)=[N+]3[B-](F)(F)n3c(/C=C/c4c[nH]c5ccc([N+](=O)[O-])cc45)c(I)c(C)c32)c1`: the photoluminescence quantum yield runs as follows: (in C1CCOC1) 0.32; (in CS(C)=O) 0.19; (in ClCCl) 0.37.
Consider `CC1=[N+]2C(=C(c3ccc(N4CCOCC4)cc3)c3ccc(C)n3[B-]2(F)F)C=C1`, for which the photoluminescence quantum yield amounted to 0.35 (in C1CCCCC1); 0.002 (in CC(=O)C(C)(C)C); 0.002 (in CC(C)=O); 0.388 (in CCCCCC); 0.008 (in CCOC(C)=O); 0.005 (in CO). Moreover, the photoluminescence quantum yield reads like this: (in Cc1ccccc1) 0.32; (in ClC(Cl)Cl) 0.11.
Under “in ClC(Cl)Cl”, `CCCCN1C(=O)c2ccc3c4c(Br)cc5c6c(ccc(c7c(Br)cc(c2c37)C1=O)c64)C(=O)N(CCCC)C5=O` came in with a photoluminescence quantum yield of 0.73.
`CC(=O)c1c(N[C@@H](CC(C)C)C(=O)O)c2ccc(N(C)C)cc2oc1=O` gave a photoluminescence quantum yield (in ClCCl) of 0.0027.
With `CC1=CC(/C=C/c2ccc(OCCCN=[N+]=[N-])cc2)=[N+]2C1=C(c1ccc(N(C)C)cc1)c1c(C)cc(C)n1[B-]2(F)F`, for the setting “in CO”, the photoluminescence quantum yield worked out at 0.59.
In the case of `O=CC12N=N[C@](C=O)(C3C4CCC(C4)C31)C1[C@@H]3CC[C@@H](C3)[C@H]12` (stereo partly drawn), the photoluminescence quantum yield (in CC#N) stood at 0.049.
Consider `CC1=[N+]2C(=C(c3c4ccccc4c(-c4ccccc4)c4ccccc34)c3ccc(C)n3[B-]2(F)F)C=C1`, for which the photoluminescence quantum yield amounted to 0.004 (in CC#N); 0.773 (in CCCCCC); 0.006 (in CCO); 0.004 (in CN(C)C=O); 0.141 (in Cc1ccccc1); 0.007 (in ClCCl).
Compound `CC(C)(C)NC(=O)c1ccc(C(=O)NC(C)(C)C)c2c1c1c3ccc(Cl)cc3c3cc(Cl)ccc3c1c1c3ccc(Cl)cc3c3cc(Cl)ccc3c21` came in with a photoluminescence quantum yield (in ClCCl) of 0.07.
Turning to `COC(=O)C[C@H](Cc1c[nH]c2ccccc12)NC(=O)[C@H](CC(=O)N[C@@H](CC1=CCc2ccccc21)C(=O)OC)NC(=O)OC(C)(C)C`, the photoluminescence quantum yield is 0.37 (in CC#N), 0.22 (in CCOC(C)=O) and 0.06 (in CO).
Regarding `CC(C)[Si]1(C(C)C)c2cc(C=O)ccc2-c2ccc(N(c3ccccc3)c3ccccc3)cc21`, the photoluminescence quantum yield was determined as 0.5 (in C1CCCCC1); 0.48 (in CC#N); 0.11 (in CCO); 0.76 (in CCOCC); 0.58 (in CS(C)=O); 0.8 (in ClCCl). For the same compound, the photoluminescence quantum yield (in c1ccccc1) was 0.77.
The compound `CC(C)(C)NC(=O)c1cc2ccccc2c2ccc3c4ccccc4c4ccccc4c3c12` yielded a photoluminescence quantum yield (in ClCCl) of 0.06.
As for `CC(C)c1cc(C(C)C)c(B2c3ccccc3Oc3cc(N4c5ccccc5C5(c6ccccc6Oc6ccccc65)c5ccccc54)ccc32)c(C(C)C)c1`, the photoluminescence quantum yield (in Cc1ccccc1) came to 0.56.
Regarding `CC1=CC(C)=[N+]2C1=C(c1ccc(I)cc1)c1c(C)cc(C)n1[B-]21Oc2ccc3ccccc3c2-c2c(ccc3ccccc23)O1`, under “in ClC(Cl)Cl”, the photoluminescence quantum yield came to 0.002.
As for `CCOC(=O)c1cc(C(=O)OCC)c2cc(N(C)C)ccc2n1`, the photoluminescence quantum yield (in CCO) came out at 0.595.
As for `O=C1CCCC2=C1C(c1ccccc1)c1c(c3ccccc3oc1=O)N2` (stereo not drawn), the photoluminescence quantum yield (in CS(C)=O) was 0.41.
As for `c1ccc(-c2nc(-c3ccccc3)c(-c3ccccc3)[nH]2)cc1`, the photoluminescence quantum yield worked out at 0.27 (in CC#N) and 0.27 (in CO).
For the compound `CN(C)c1ccc2c(c1)Cc1ccccc1-2`, the photoluminescence quantum yield by setting is: (in C1CCOC1) 0.39; (in C1COCCO1) 0.38; (in CC(=O)N(C)C) 0.4; (in CCCCCC) 0.25; (in CCCCCCO) 0.22; (in CCCCCO) 0.19. Moreover, the photoluminescence quantum yield runs as follows: (in CCCCO) 0.19; (in CCCO) 0.21; (in CCO) 0.2; (in CCOC(C)=O) 0.4; (in CCOCC) 0.31; (in CO) 0.2. Further, the photoluminescence quantum yield by setting is: (in CS(C)=O) 0.42; (in O) 0.12; (in OC1CCCCC1) 0.22.
Compound `Cn1cc(-c2nc3ccccc3nc2C#Cc2ccc(C#N)cc2)c2ccccc21` showed a photoluminescence quantum yield (in ClCCl) of 0.15.
Where the note is “in CC#N”, `COC(=O)C12N=N[C@](C(=O)OC)(C3C4C=CC(C4)C31)[C@@H]1C[C@H]12` (stereo partly drawn) showed a photoluminescence quantum yield of 0.034.
